# Data taken from patent US20240238380A1, “COMPOSITION FOR COMBINATION THERAPY COMPRISING GROWTH DIFFERENTIATION FACTOR-15 VARIANT AND GLUCAGON-LIKE PEPTIDE-1 RECEPTOR AGONIST” (YUHAN CORPORATION, priority 2021, published 2024).
# Marks after values point to notes of the source that are not given here.
# Columns and labels:
# Format in all cases: in vivo
# [1] = Anti-obesity and metabolic parameter effects alone and in combination with large dose of semaglutide in ob/ob mice (Example 6); details: 30 nmol/kg s.c. Q3D
# Description: 5-week-old male ob/ob mice (Jackson Laboratory, USA) were purchased from Raon Bio (Animal Inc., Republic of Korea). The ob/ob mice were acclimatized with normal chow or normal chow diet (Teklad Certified Irradiated Global 18% Protein Rodent Diet, 2918C, Harlan Co., USA) for 5 weeks, and drug treatment was started at 10 weeks of age. On the day before drug treatment, the mice were grouped based on the body weight of individual mice and random blood glucose levels determined by sampling at the tail vein (n=6 per group). Thereafter, 1 nmol/kg of FM9-6+Fc_hole alone, 30 nmol/kg of semaglutide alone, and FM9-6+Fc_hole and semaglutide in combination (1+30 nmol/kg) were subcutaneously administered thereto a total of 9 times every 3 days (Q3D), and body weight, food intake, and non-fasting blood glucose were measured every day or every 3 days during the experimental period (24 days). Here, DPBS (Dulbecco's phosphate-buffered saline, Gibco, USA) was administered for vehicle treatment.
# [2] = Anti-obesity effect alone and in combination with semaglutide or tirzepatide in DIO mice (Example 7); details: 10 nmol/kg s.c. Q3D
# Description: Diet-induced obese (DIO) mice, obtained by feeding mice with high-fat diet, are characterized by obesity, hyperglycemia, and insulin resistance. Diet-induced obese mice (Taconic, USA) resulting from feeding C57BL/6N mice with high-fat food (60 kcal % fat, Research Diets, Cat #D12492, USA) for 8 weeks were purchased from Raon Bio (Animal Inc., Republic of Korea). The diet-induced obese mice were additionally fed with 60% high-fat food for 5 weeks after arrival, and then used in the present test. On the day before drug treatment, the mice were grouped based on the average body weight of individual mice (n=6 per group), after which 0.1 and 1 nmol/kg of FM9-6+Fc_hole alone, 10 nmol/kg of semaglutide (long-acting GLP-1 derivative, SEQ ID NO: 114) and 10 nmol/kg of tirzepatide (long-acting GLP-1/GIP derivative, SEQ ID NO: 117) alone as control drugs, FM9-6+Fc_hole and semaglutide at doses of 0.1+10 and 1+10 nmol/kg in combination, and FM9-6+Fc_hole and tirzepatide at doses of 1+10 nmol/kg in combination were subcutaneously administered thereto every 3 days (Q3D) for a total of 4 weeks. The semaglutide that was used in the test was Ozempic® (semaglutide) from Novo NorDisk, and the tirzepatide that was used was a material synthesized by MedChemExpress (HY-P1731B, USA). Here, DPBS (Dulbecco's phosphate-buffered saline, Gibco, USA) was administered for vehicle treatment, and, during the experimental period (26 days), body weight was measured every day and food intake was measured every 3 days.
# [3] = Anti-obesity effect by repeated administration alone and in combination with semaglutide in ob/ob mice (Example 5)
# Description: The ob/ob mouse has a mutation in the leptin gene resulting in leptin deficiency, and are characterized by hyperglycemia, insulin resistance, overeating, and obesity. 5-week-old male ob/ob mice (Jackson Laboratory, USA) were purchased from Raon Bio (Animal Inc., Republic of Korea). The ob/ob mice were acclimatized with normal food (Teklad Certified Irradiated Global 18% Protein Rodent Diet, 2918C, Harlan Co., USA) for 4 weeks, and drug treatment was started at 9 weeks of age. On the day before drug treatment, the mice were grouped based on the body weight of individual mice and random blood glucose levels determined by sampling at the tail vein (n=6 per group). Thereafter, 1 and 10 nmol/kg of FM9-6+Fc_hole alone, 10 and 30 nmol/kg of semaglutide alone, and FM9-6+Fc_hole and semaglutide at doses of 1+10 and 10+10 nmol/kg in combination were subcutaneously administered thereto a total of 10 times every 3 days (Q3D), and body weight and food intake were measured every day or every 3 days during the experimental period (29 days). Here, DPBS (Dulbecco's phosphate-buffered saline, Gibco, USA) was administered for vehicle treatment.
# [4] = Anti-obesity effect alone and in combination with semaglutide in diet-induced obese (DIO) mice (Example 4); details: for Change in body weight (%) vs. day 0, Maximum efficacy: 8 weeks
# Description: Diet-induced obese (DIO) mice, obtained by feeding mice with high-fat food, are characterized by obesity, hyperglycemia, and insulin resistance. Diet-induced obese mice (Taconic, USA) resulting from feeding C57BL/6N mice with high-fat food (60 kcal % fat, Research Diets, Cat #D12492, USA) for 8 weeks were purchased from Raon Bio (Animal Inc., Republic of Korea). The diet-induced obese mice were additionally fed with 60% high-fat food for 5 weeks after arrival, and then used in the present test. On the day before drug treatment, the mice were grouped based on the average body weight of individual mice (n=6 per group), after which 10 and 30 nmol/kg of FM9-6+Fc_hole alone, 10 and 30 nmol/kg of semaglutide (long-acting GLP-1 derivative, SEQ ID NO: 114) alone as a control drug, and FM9-6+Fc_hole and semaglutide were administered subcutaneously every 2 days (Q2D) for a total of 8 weeks in a combination of 10+10 and 30+30 nmol/kg. The semaglutide that was used in the test was Ozempic® (semaglutide) from Novo NorDisk. Here, for vehicle treatment, DPBS (Dulbecco's phosphate-buffered saline, Gibco, USA) was subcutaneously administered every 2 days (Q2D). Body weight was measured every 2 days from the first day of drug treatment to day 54, and the results thereof are shown in Table 4 below.
# [5] = Inhibitory effect on gastric emptying (acetaminophen exposure) in normal rats (Example 8); details: rats; for gastric emptying (in words): vs. negative control
# Experimental: Therefore, this example was performed to investigate the inhibitory effect on gastric emptying when the novel long-acting GDF15 fusion protein was administered at the doses equal to the effective dose, higher than the maximum effective dose, or in combination with a GLP-1 receptor agonist to rats. 6-week-old male SD rats (Orient Bio, Republic of Korea) were purchased from Hallym Lab. Animal Inc., Republic of Korea. Animals were acclimated for 7 days. On the day of drug administration, the rats were grouped based on the average body weight of individual rats (n=5 per group) and fasted for at least 6 hours before oral administration of acetaminophen. Then, 0.1, 1, and 10 nmol/kg of FM9-6+Fc_hole, 10 nmol/kg of semaglutide (long-acting GLP-1 derivative, SEQ ID NO: 114), and combination of FM9-6+Fc_hole and semaglutide (1+10 nmol/kg) were subcutaneously administered. The semaglutide was Ozempic® (semaglutide) from Novo NorDisk. As a negative control drug, D-PBS (normal vehicle) was subcutaneously administered, and as a positive control drug, 30 mg/kg of loperamide was orally administered 45 minutes before acetaminophen administration. On 3, 24 and 72 hours after a single dose of the test articles, acetaminophen was orally administered at 100 mg/kg to rats, and blood samples were collected before and at 30, 60, 90, 120 and 150 minutes after acetaminophen administration. The plasma concentration of acetaminophen was analyzed, and the pharmacokinetic profiles and the systemic exposures of acetaminophen were compared to evaluate the inhibitory effect on gastric emptying among the groups.
substance,measurement,setting,value
semaglutide [reference compound],"Change in body weight (%) vs. ob/ob control, Efficacy on Day 24",[1],−10.08**** %
same,"Mean of random blood glucose levels (mg/dL), Efficacy on Day 24",[1],155.7**** mg/dL
same,"Change in body weight (%) vs. day 0, Maximum efficacy",[2]; 4 weeks,−18.95 (On Day 19)**** %
same,"Change in body weight (%) vs. day 0, Efficacy on Day 26",[2]; Day 26,−17.69**** %
same,"Change in body weight (%) vs. ob/ob control, Maximum efficacy",[3]; 10 nmol/kg s.c. Q3D,−10.04 (On Day 25)*** %
same,"Change in body weight (%) vs. ob/ob control, Efficacy on Day 29",[3]; 10 nmol/kg s.c. Q3D,−6.88* %
same,"Change in body weight (%) vs. ob/ob control, Maximum efficacy",[3]; 30 nmol/kg s.c. Q3D,−11.38 (On Day 25)**** %
same,"Change in body weight (%) vs. ob/ob control, Efficacy on Day 29",[3]; 30 nmol/kg s.c. Q3D,−9.92**** %
same,"Change in body weight (%) vs. day 0, Maximum efficacy",[4]; 10 nmol/kg s.c. Q2D,−26.71 (On Day 30)**** %
same,"Change in body weight (%) vs. day 0, Efficacy on Day 54",[4]; 10 nmol/kg s.c. Q2D,−17.34**** %
same,"Change in body weight (%) vs. day 0, Maximum efficacy",[4]; 30 nmol/kg s.c. Q2D,−28.13 (On Day 21)**** %
same,"Change in body weight (%) vs. day 0, Efficacy on Day 54",[4]; 30 nmol/kg s.c. Q2D,−13.40**** %
same,"AUClast of acetaminophen (μg · min/mL), 3 hr","[5]; 10 nmol/kg s.c. single dose, acetaminophen 3 hr after dose",266.43*** μg · min/mL
same,"AUClast of acetaminophen (μg · min/mL), 24 hr","[5]; 10 nmol/kg s.c. single dose, acetaminophen 24 hr after dose",2577.72 µg·min/mL
same,"AUClast of acetaminophen (μg · min/mL), 72 hr","[5]; 10 nmol/kg s.c. single dose, acetaminophen 72 hr after dose",3354.48 µg·min/mL
same,gastric emptying (in words),[5]; 24 and 72 hours after administration,gastric emptying was restored
same,gastric emptying (in words),[5]; 3 hours after administration,inhibition of gastric emptying
